# Results as given in US7736636B2, “Method for treating occlusive vascular diseases & wound healing” (priority 2004, dated 2010).
# “Also recorded” adds a separate entry of the source. Where two headings read alike, the source gives them in different places.
# How the values were obtained:
# [1] = test system: CAM of 10-day-old chick embryos; assay: Chorioallantoic membrane (CAM) model of angiogenesis, Table 1; type: in vivo; settings: for Mean Number of Branch Points ± SD: n = 8, control 76 ± 10
# Procedure: (§1) Chorioallantoic membrane (CAM) Model of Angiogenesis: In vivo Neovascularization was examined by methods described previously. 9-12 Ten-day-old chick embryos were purchased from SPAFAS (Preston, Conn.) and incubated at 37° C. with 55% relative humidity. A hypodermic needle was used to make a small hole in the shell concealing the air sac, and a second hole was made on the broad side of the egg, directly over an avascular portion of the embryonic membrane that was identified by candling. A false air sac was created beneath the second hole by the application of negative pressure at the first hole, causing the CAM to separate from the shell. A window approximately 1.0 cm 2 was cut in the shell over the dropped CAM with a small-crafts grinding wheel (Dremel, division of Emerson Electric Co.), allowing direct access to the underlying CAM. FGF2 (1 μg/mL) was used as a standard proangiogenic agent to induce new blood vessel branches on the CAM of 10-day-old embryos. Sterile disks of No. 1 filter paper (Whatman International) were pretreated with 3 mg/mL cortisone acetate. Nicotine, nicotinic acid analogs, FGF2 or control solvents, and inhibitors were then applied to the disks and the disks allowed to dry. The disks were then suspended in PBS and placed on growing CAMs. Filters treated were placed on the first day of the 3-day incubation, with antibody to FGF2 added 30 minutes later to selected samples as indicated. At 24 hours, the MAPK cascade inhibitor PD 98059 was also added to CAMs topically by means of the filter disks.
# (§2) Microscopic Analysis of CAM Sections: After incubation at 37° C. with 55% relative humidity for 3 days, the CAM tissue directly beneath each filter disk was resected from control and treated CAM samples. Tissues were washed 3× with PBS, placed in 35-mm Petri dishes (Nalge Nunc), and examined under an SV6 stereomicroscope (Zeiss) at ×50 magnification. Digital images of CAM sections exposed to filters were collected using a 3-charge-coupled device color video camera system (Toshiba) and analyzed with Image-Pro software (Media Cybernetics). The number of vessel branch points contained in a circular region equal to the area of each filter disk were counted. One image was counted in each CAM preparation, and findings from 8 to 10 CAM preparations were analyzed for each treatment condition (Nicotine, nicotinic acid analogs). The resulting angiogenesis index is the mean±SEM of new branch points in each set.
# [2] = test system: CAM of 10-day-old chick embryos; assay: Nicotine, nicotinic acid and FGF2 alone and combined, branch points (Table 2, titled Release of FGF2 From Endothelial Cells); type: in vivo; settings: for Average number of branch Points ± SD: n = 16, control 86 ± 14
# Procedure: as §1
# as §2, with “One image was counted in each CAM preparation, and findings from 8 to 10 CAM preparations were analyzed for each treatment condition (Nicotine, nicotinic acid analogs).” left out
# [3] = test system: normal human dermal fibroblast cells (NHDF); settings: in vitro wound healing
# Procedure: Additionally, a 3-dimensional wound healing method already established in our Laboratory will be utilized in this study (see below).
# In Vitro 3D Wound Healing Assay of Human Dermal Fibroblast Cells:
# Step 1: Prepare Contracted Collagen Gels: • 1) Coat 24-well plate with 350 ul 2% BSA at RT for 2 hr, • 2) 80% confluent NHDF (normal human dermal fibroblast cells, Passage 5-9) are trypsinized and neutralized with growth medium, centrifuge and wash once with PBS • 3) Prepare collagen-cell mixture, mix gently and always on ice:
# • 4) Aspire 2% BSA from 24 well plate, add collagen-cell mixture 350 ul/well, and incubate the plate in 37° C. CO2 incubator. • 5) After 1 hr, add DMEM+5% FBS medium 0.5 ml/well, use a 10 ul tip Detach the collagen gel from the edge of each well, then incubate for 2 days. The fibroblast cells will contract the collagen gel
# Step 2: Prepare 3D Fibrin Wound Clot and Embed Wounded Collagen Culture • 1) Prepare fibrinogen solution (1 mg/ml) with or without testing regents. 350 ul fibrinogen solution for each well in eppendorf tube.
# • 2) Cut each contracted collagen gel from middle with scissors. Wash the gel with PBS and transfer the gel to the center of each well of 24 well plate • 3) Add 1.5 ul of human thrombin (0.25 U/ul) to each tube, mix well and then add the solution around the collagen gel, the solution will polymerize in 10 mins. […]
Compound,New blood vessel generation / branch formation in the CAM model (in words) [1],Mean Number of Branch Points ± SD ([1]; 1.0 μg),New blood vessel generation / branch formation in the CAM model (in words) ([1]; listed as nicotinic acid),Average number of branch Points ± SD ([2]; 0.05 ug),Average number of branch Points ± SD ([2]; 0.1 ug),Pro-angiogenesis effect compared with FGF2 (in words) ([2]; Table 2),Mean Number of Branch Points ± SD ([1]; 0.1 μg),Stimulation of wound healing (in words) [3],Average number of branch Points ± SD ([2]; 0.5 ug),Average number of branch Points ± SD ([2]; 1.0 ug)
O=C(O)c1cccnc1 [Nicotinic acid],promoted new blood vessel generation,155 ± 16,promotes new blood vessel branch formation,,,,,,,
CN1CCCC1c1cccnc1 (stereo not drawn) [Nicotine],promoted new blood vessel generation; also recorded: promotes new blood vessel branch formation,,,145 ± 10,192 ± 11,comparable pro-angiogenesis effect to that shown with FGF2,192 ± 11,potent stimulation of wound healing,,
"FGF2: basic fibroblast growth factor, used as a standard proangiogenic agent",,195 ± 22,,,,,,,115 ± 08,195 ± 22
